{"source": "patent US9096579B2", "about": "“Amino-indolyl-substituted imidazolyl-pyrimidines and their use as medicaments” (Boehringer Ingelheim International GmbH, priority 2012, dated 2015)", "origin": "cited, not measured here", "key": {"[1]": {"test_system": "atherosclerotic plaque size", "details": "murine model of atherosclerosis"}, "[2]": {"test_system": "platelet counts in patients with ITP", "details": "single center open label study"}}, "data": [{"smiles": "COc1cc(Nc2ncc(F)c(Nc3ccc4c(n3)N(COP(=O)(O)O)C(=O)C(C)(C)O4)n2)cc(OC)c1OC", "note": "[R788 (R406)]", "values": [{"measurement": "atherosclerotic plaque size", "setting": "[1]", "result": "reduced atherosclerotic plaque size"}, {"measurement": "platelet counts", "setting": "[2]", "result": "improved platelet counts"}]}]}
